Source: the NIST ThermoML archive (doi:10.1016/j.jct.2015.07.035)
± gives the expanded uncertainty stated by the source.

What was measured:
[1] = 101.33 kPa, Liquid, Vibrating tube method
[2] = refractive index (Na D-line) (dimensionless); conditions: 101.33 kPa, Liquid, Standard Abbe refractometry

| SMILES | mass density ([1]; 298.2 K) [kg/m3] | refractive index ([2]; 298.2 K) | mass density ([1]; 303.2 K) [kg/m3] | refractive index ([2]; 303.2 K) |
| --- | --- | --- | --- | --- |
| CC(O)c1ccccc1 (configuration not stated) [1-phenylethanol] | 1006.48 ± 1.1 | 1.52467 ± 0.00042 |  |  |
| CC(C)CC(=O)O [3-methylbutanoic acid] | 921.34 ± 1.1 | 1.40124 ± 0.00042 |  |  |
| CCCCCCCCCCO [decan-1-ol] | 826.41 ± 1 | 1.43554 ± 0.00042 |  |  |
| OC1CCCCC1 [cyclohexanol] |  |  | 941.42 ± 1.1 | 1.46238 ± 0.00042 |
| c1ccc(COCc2ccccc2)cc1 [dibenzyl ether] | 1039.32 ± 1.1 | 1.56019 ± 0.00042 |  |  |
| Clc1ccccc1 [chlorobenzene] | 1101.08 ± 1.1 | 1.52165 ± 0.00042 |  |  |
